ChEMBL document CHEMBL1138228, “N,N'-Bisbenzylidenebenzene-1,4-diamines and N,N'-Bisbenzylidenenaphthalene-1,4-diamines as Sirtuin Type 2 (SIRT2) Inhibitors” (J Med Chem, 2006)

What was measured:
[1] = target: T1, NAD-dependent protein deacetylase sirtuin-2 (Homo sapiens) (UniProt Q8IXJ6); assay: Inhibition of SIRT2 at 200 uM
T1 sequence (whole entry): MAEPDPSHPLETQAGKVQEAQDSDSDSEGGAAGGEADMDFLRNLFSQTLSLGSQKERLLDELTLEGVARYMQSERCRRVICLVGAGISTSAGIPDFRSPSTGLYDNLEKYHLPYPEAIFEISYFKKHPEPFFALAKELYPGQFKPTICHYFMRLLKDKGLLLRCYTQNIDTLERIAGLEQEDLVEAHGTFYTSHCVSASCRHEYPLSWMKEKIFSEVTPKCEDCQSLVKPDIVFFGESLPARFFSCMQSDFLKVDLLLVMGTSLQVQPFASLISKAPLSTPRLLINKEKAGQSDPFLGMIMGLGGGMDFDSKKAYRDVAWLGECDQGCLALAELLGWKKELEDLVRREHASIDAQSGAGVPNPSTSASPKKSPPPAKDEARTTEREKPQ

[2] = target: T2, NAD-dependent protein deacetylase sirtuin-2 (Homo sapiens, UniProt Q8IXJ6); assay: Inhibition of SIRT2
T2 sequence (Q8IXJ6 whole entry): T1 sequence (whole entry)

| inhibition [1] [%] | IC50 [2] [µM] | SMILES |
| --- | --- | --- |
| 34 |  | COc1ccccc1/C=N/c1ccc(/N=C/c2ccccc2OC)c2ccccc12 |
| 56 | 58.4 | Oc1ccccc1/C=N/c1ccc(/N=C/c2ccccc2O)cc1 |
| 20 |  | COc1cccc(/C=N/c2ccc(/N=C/c3cccc(OC)c3)cc2)c1 |
| 17 |  | COc1ccc(/C=N/c2ccc(/N=C/c3ccc(OC)cc3)c3ccccc23)cc1 |
| 64 | 137 | Oc1ccc(/C=N/c2ccc(/N=C/c3ccc(O)cc3)c3ccccc23)cc1 |
| 53 | 196 | Oc1cccc(/C=N/c2ccc(/N=C/c3cccc(O)c3)c3ccccc23)c1 |
| 13 |  | COc1ccccc1/C=N/c1ccc(/N=C/c2ccccc2OC)cc1 |
| 38 |  | Oc1ccccc1/C=N/c1ccc(/N=C/c2ccccc2O)c2ccccc12 |
| 18 |  | C(=N\c1ccc(/N=C/c2ccccc2)c2ccccc12)/c1ccccc1 |
| 35 |  | C(=N\c1ccc(/N=C/c2ccccc2)cc1)/c1ccccc1 |
| 20 |  | COc1cccc(/C=N/c2ccc(/N=C/c3cccc(OC)c3)c3ccccc23)c1 |

Continued, compound first:

| SMILES | inhibition [1] [%] | IC50 [2] [µM] |
| --- | --- | --- |
| Oc1ccc(/C=N/c2ccc(/N=C/c3ccc(O)c(O)c3)cc2)cc1O | 13 |  |
| Oc1ccc(CNc2ccc(NCc3ccc(O)cc3)cc2)cc1 | 14 |  |
| Oc1ccc(/C=N/c2ccc(/N=C/c3ccc(O)cc3)cc2)cc1 | 22 |  |
| Oc1ccccc1CNc1ccc(NCc2ccccc2O)cc1 | 27 |  |
| Oc1cccc(CNc2ccc(NCc3cccc(O)c3)cc2)c1 | 8 |  |
| Oc1cccc(/C=N/c2ccc(/N=C/c3cccc(O)c3)cc2)c1 | 12 |  |
| c1ccc(CNc2ccc(NCc3ccccc3)cc2)cc1 | 21 |  |
